Results published in ChEMBL document CHEMBL4828709, “Discovery of 2,4-pyrimidinediamine derivatives as potent dual inhibitors of ALK and HDAC” (Eur J Med Chem, 2021).
Values belong to the compound of their own block, whether it stands above or below them.

Experiments:
[1] = tested on: SH-SY5Y; experiment: Induction of apoptosis in human SH-SY5Y cells assessed as early apoptotic cells at 1 uM measured after 24 hrs by Annexin V-FITC/PI staining based flowcytometry (reference value: 0.82%); format: functional
[2] = tested on: HepG2; experiment: cells; format: functional, cell-based; conditions: Homo sapiens, HepG2, 72 h
Description: Antiproliferative activity against human HepG2 cells assessed as inhibition of cell proliferation measured after 72 hrs by CCK8 assay

[3] = cells; format: functional, cell-based; conditions: Homo sapiens, SKNBE2, 72 h
Description: Antiproliferative activity against human SKNBE2 cells harboring wild type ALK assessed as inhibition of cell proliferation measured after 72 hrs by CCK8 assay

[4] = tested on: MDA-MB-231; experiment: Induction of apoptosis in human MDA-MB-231 cells assessed as late apoptotic cells at 1 uM measured after 24 hrs by Annexin V-FITC/PI staining based flowcytometry ( Rvb = 5.28%); format: functional
[5] = tested on: NCI-H2228; experiment: cells; format: functional, cell-based; conditions: Homo sapiens, NCI-H2228, 72 h
[6] = tested on: MDA-MB-231; experiment: Induction of apoptosis in human MDA-MB-231 cells assessed as necrotic cells at 1 uM measured after 24 hrs by Annexin V-FITC/PI staining based flowcytometry (reference value: 0.94%); format: functional
[7] = tested on: SH-SY5Y; experiment: cells; format: functional, cell-based; conditions: Homo sapiens, 72 h
Description: Antiproliferative activity against human SH-SY5Y cells harboring ALK F1174L mutant assessed as inhibition of cell proliferation measured after 72 hrs by CCK8 assay

[8] = tested on: MDA-MB-231; experiment: Induction of apoptosis in human MDA-MB-231 cells assessed as early apoptotic cells at 1 uM measured after 24 hrs by Annexin V-FITC/PI staining based flowcytometry ( Rvb = […]%); format: functional
[9] = tested on: SH-SY5Y; experiment: Induction of apoptosis in human SH-SY5Y cells assessed as viable cells at 1 uM measured after 24 hrs by Annexin V-FITC/PI staining based flowcytometry (reference value: 77.05%); format: functional; conditions: read-out: Activity
[10] = tested on: SH-SY5Y; experiment: Induction of apoptosis in human SH-SY5Y cells assessed as necrotic cells at 1 uM measured after 24 hrs by Annexin V-FITC/PI staining based flowcytometry (reference value: 7.81%); format: functional
[11] = tested on: MDA-MB-231; experiment: cells; format: functional, cell-based; conditions: Homo sapiens, MDA-MB-231, 72 h
Description: Antiproliferative activity against human MDA-MB-231 cells assessed as inhibition of cell proliferation measured after 72 hrs by CCK8 assay

[12] = tested on: SH-SY5Y; experiment: Induction of apoptosis in human SH-SY5Y cells assessed as late apoptotic cells at 1 uM measured after 24 hrs by Annexin V-FITC/PI staining based flowcytometry (reference value: 14.32%); format: functional
[13] = tested on: MDA-MB-231; experiment: Induction of apoptosis in human MDA-MB-231 cells assessed as viable cells at 1 uM measured after 24 hrs by Annexin V-FITC/PI staining based flowcytometry (reference value: 93.14%); format: functional; conditions: read-out: Activity
[14] = tested on: A549; experiment: Potency index, ratio of ceritinib IC50 to test compound IC50 for human A549 cells assessed as inhibition of cell proliferation measured after 72 hrs by CCK8 assay; format: functional
[15] = molecular target: T1, ALK tyrosine kinase receptor (Homo sapiens, UniProt Q9UM73); experiment: Inhibition of ALK (unknown origin) at 100 nM preincubated for 10 mins followed by addition of substrate and ATP for 25 mins by caliper EZ reader method; conditions: time 35.0 min
Target sequence in this assay (Q9UM73 19-1620 limits assumed): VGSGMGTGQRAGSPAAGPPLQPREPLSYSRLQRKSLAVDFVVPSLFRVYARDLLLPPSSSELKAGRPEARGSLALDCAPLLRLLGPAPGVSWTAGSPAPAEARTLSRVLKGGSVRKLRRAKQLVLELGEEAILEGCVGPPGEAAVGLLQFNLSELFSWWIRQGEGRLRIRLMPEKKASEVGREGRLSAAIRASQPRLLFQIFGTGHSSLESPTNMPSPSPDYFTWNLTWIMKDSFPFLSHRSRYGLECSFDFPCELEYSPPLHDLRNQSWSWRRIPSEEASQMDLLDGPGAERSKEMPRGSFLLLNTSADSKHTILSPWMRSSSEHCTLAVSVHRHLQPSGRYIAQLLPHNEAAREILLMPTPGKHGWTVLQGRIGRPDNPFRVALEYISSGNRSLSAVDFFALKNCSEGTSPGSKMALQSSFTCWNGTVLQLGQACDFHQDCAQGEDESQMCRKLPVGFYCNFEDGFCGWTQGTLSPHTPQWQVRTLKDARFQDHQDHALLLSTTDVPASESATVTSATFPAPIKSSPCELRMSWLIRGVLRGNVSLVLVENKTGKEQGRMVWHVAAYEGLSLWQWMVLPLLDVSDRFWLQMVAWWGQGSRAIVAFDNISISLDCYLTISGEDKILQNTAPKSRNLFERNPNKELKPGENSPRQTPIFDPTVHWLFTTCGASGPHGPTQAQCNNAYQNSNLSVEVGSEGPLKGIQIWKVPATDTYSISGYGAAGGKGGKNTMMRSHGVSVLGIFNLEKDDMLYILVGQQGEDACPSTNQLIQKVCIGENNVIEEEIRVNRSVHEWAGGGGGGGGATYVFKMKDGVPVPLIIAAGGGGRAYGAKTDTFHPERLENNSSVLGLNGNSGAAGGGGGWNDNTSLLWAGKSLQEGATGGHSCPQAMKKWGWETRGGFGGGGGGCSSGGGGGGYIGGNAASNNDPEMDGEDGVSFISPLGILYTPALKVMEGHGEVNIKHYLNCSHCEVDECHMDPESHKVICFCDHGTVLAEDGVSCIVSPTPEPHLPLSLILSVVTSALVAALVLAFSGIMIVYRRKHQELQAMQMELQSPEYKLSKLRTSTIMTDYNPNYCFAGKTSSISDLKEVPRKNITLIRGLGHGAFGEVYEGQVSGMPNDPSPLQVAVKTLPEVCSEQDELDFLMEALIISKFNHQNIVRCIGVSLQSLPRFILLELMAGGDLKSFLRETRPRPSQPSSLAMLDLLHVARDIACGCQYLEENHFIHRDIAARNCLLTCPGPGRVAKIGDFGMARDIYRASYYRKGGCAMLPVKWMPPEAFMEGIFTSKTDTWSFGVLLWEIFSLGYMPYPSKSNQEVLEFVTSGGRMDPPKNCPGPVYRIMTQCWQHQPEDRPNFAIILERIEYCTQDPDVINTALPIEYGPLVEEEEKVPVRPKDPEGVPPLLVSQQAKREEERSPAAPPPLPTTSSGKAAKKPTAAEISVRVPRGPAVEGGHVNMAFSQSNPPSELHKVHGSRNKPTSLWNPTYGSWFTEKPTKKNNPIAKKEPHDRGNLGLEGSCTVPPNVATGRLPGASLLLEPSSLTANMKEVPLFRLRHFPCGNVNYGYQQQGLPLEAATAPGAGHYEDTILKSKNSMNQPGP

[16] = tested on: NCI-H2228; experiment: Potency index, ratio of ceritinib IC50 to test compound IC50 for human NCI-H2228 cells harboring EML4/ALK […] assessed as inhibition of cell proliferation measured after 72 hrs by CCK8 assay; format: functional
[17] = molecular target: T2, Histone deacetylase 1 (Homo sapiens, UniProt Q13547); conditions: Sf9, dose 10.0 nM, time 15.0 min
T2 sequence (Q13547 whole entry): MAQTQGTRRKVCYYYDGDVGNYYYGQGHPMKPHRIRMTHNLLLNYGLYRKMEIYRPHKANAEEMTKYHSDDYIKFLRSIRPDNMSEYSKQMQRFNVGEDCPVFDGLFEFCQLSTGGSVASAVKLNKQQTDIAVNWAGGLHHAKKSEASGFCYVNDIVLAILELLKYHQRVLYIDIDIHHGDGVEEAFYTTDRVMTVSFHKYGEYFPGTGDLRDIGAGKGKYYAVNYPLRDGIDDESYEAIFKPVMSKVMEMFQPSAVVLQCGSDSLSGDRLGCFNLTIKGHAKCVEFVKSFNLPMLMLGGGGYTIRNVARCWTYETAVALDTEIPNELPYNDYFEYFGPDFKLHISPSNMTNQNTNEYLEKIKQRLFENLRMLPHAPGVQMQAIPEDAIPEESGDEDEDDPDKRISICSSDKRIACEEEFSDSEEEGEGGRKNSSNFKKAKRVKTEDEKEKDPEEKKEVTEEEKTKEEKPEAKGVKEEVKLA

[18] = molecular target: T3, Protein deacetylase HDAC6 (Homo sapiens, UniProt Q9UBN7)
T3 sequence (Q9UBN7 whole entry): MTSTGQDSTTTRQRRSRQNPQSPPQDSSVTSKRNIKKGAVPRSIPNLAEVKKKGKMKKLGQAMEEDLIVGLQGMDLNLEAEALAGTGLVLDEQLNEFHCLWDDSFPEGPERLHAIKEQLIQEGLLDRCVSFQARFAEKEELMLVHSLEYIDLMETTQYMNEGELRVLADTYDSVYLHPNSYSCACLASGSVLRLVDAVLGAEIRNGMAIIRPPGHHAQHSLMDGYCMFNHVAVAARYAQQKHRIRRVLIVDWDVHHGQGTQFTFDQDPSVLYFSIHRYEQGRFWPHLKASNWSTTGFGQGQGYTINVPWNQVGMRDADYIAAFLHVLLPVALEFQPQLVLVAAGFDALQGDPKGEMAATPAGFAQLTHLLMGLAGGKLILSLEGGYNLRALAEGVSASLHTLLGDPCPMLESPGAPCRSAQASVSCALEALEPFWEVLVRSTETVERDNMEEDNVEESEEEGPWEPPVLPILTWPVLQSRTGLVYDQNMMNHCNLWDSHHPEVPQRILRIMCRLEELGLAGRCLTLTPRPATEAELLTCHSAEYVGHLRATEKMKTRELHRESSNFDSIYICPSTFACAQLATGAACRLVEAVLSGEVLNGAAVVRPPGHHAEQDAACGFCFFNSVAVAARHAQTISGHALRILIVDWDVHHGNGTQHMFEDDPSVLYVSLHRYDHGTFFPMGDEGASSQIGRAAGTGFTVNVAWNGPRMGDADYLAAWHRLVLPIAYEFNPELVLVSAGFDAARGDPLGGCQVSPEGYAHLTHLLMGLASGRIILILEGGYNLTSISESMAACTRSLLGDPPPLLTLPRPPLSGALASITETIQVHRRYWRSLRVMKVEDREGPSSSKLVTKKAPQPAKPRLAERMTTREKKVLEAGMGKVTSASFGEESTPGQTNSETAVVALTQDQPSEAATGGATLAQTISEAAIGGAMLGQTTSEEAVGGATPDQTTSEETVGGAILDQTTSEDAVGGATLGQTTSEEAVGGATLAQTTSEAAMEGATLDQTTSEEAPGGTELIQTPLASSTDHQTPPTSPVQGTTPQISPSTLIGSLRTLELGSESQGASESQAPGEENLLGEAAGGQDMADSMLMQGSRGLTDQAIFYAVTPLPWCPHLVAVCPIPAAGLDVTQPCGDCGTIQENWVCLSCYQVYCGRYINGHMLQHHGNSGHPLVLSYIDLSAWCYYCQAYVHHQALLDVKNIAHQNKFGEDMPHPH
Description: Inhibition of HDAC6 (unknown origin)

[19] = tested on: A549; experiment: Potency index, ratio of crizotinib IC50 to test compound IC50 for human A549 cells assessed as inhibition of cell proliferation measured after 72 hrs by CCK8 assay; format: functional
[20] = tested on: HepG2; experiment: Potency index, ratio of crizotinib IC50 to test compound IC50 for human HepG2 cells assessed as inhibition of cell proliferation measured after 72 hrs by CCK8 assay; format: functional
[21] = molecular target: T2, Histone deacetylase 1; experiment: biochemical
Description: Inhibition of recombinant human C-terminal His/FLAG-tagged HDAC1 (1 to 482 residues) expressed in Sf9 insect cells using Ac-peptide-AMC as substrate preincubated for 15 mins followed by addition of substrate and trypsin measured by flourescence assay

[22] = tested on: SH-SY5Y; experiment: Potency index, ratio of ceritinib IC50 to test compound IC50 for human SH-SY5Y cells harboring ALK F1174L mutant assessed as inhibition of cell proliferation measured after 72 hrs by CCK8 assay; format: functional
[23] = molecular target: ALK tyrosine kinase receptor (Homo sapiens, UniProt Q9UM73, L1196M)
ALK tyrosine kinase receptor (Homo sapiens, UniProt Q9UM73, L1196M), sequence (Q9UM73 19-1620 L1196M limits assumed): as the sequence (Q9UM73 19-1620 limits assumed) above, with L1178M counted along it

[24] = tested on: HepG2; experiment: Potency index, ratio of ceritinib IC50 to test compound IC50 for human HepG2 cells assessed as inhibition of cell proliferation measured after 72 hrs by CCK8 assay; format: functional
[25] = molecular target: T1, ALK tyrosine kinase receptor
Target sequence in this assay (Q9UM73 whole entry): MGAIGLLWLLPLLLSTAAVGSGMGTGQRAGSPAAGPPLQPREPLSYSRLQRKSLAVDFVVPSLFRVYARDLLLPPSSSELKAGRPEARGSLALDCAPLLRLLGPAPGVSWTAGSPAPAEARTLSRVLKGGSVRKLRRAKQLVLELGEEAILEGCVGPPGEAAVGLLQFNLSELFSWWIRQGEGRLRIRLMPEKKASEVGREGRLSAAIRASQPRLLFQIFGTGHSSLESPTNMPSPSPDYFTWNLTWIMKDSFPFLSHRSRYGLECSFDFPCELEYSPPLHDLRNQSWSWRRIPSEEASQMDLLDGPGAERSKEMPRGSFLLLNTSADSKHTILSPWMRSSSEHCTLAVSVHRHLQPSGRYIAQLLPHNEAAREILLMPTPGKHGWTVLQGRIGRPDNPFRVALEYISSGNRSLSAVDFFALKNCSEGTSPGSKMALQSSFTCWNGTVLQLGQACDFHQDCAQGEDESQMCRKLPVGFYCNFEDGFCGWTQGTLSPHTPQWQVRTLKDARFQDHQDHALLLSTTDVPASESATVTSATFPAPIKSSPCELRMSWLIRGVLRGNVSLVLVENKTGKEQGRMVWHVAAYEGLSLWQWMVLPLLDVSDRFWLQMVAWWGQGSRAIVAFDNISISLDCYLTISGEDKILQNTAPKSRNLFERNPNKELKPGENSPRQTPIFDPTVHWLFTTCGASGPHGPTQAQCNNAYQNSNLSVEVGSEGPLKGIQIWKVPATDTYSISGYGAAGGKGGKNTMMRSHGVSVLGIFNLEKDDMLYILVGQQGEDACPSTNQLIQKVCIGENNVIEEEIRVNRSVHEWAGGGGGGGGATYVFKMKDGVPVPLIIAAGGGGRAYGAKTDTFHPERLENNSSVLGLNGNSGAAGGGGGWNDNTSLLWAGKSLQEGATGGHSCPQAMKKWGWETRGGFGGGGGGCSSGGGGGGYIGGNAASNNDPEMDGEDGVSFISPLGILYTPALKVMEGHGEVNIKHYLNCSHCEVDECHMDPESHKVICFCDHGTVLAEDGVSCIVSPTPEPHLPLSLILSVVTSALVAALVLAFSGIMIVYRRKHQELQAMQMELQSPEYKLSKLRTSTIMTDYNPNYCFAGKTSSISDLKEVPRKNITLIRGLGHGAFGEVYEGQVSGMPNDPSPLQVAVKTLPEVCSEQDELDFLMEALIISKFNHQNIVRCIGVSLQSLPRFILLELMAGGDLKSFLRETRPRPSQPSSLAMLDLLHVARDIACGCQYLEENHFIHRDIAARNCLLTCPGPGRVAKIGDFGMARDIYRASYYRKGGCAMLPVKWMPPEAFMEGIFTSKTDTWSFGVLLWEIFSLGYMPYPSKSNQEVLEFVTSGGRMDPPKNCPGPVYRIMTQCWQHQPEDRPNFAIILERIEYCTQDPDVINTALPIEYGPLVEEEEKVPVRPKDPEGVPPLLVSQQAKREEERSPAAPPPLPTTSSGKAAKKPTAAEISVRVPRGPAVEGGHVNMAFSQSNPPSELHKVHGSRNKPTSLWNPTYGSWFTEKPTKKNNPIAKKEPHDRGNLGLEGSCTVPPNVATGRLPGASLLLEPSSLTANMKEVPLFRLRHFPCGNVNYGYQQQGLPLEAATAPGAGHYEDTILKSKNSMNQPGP
Description: Inhibition of ALK (unknown origin) preincubated for 10 mins followed by addition of substrate and ATP for 25 mins by caliper EZ reader method

[26] = molecular target: T2, Histone deacetylase 1; conditions: Sf9, dose 100.0 nM, time 15.0 min
[27] = tested on: NCI-H2228; experiment: Potency index, ratio of crizotinib IC50 to test compound IC50 for human NCI-H2228 cells harboring EML4/ALK […] assessed as inhibition of cell proliferation measured after 72 hrs by CCK8 assay; format: functional
[28] = Potency index, ratio of crizotinib IC50 to test compound IC50 for human SKNBE2 cells harboring wild type ALK assessed as inhibition of cell proliferation measured after 72 hrs by CCK8 assay; format: functional
[29] = molecular target: Histone deacetylase 2 (Homo sapiens, UniProt Q92769)
Histone deacetylase 2, sequence (Q92769 whole entry): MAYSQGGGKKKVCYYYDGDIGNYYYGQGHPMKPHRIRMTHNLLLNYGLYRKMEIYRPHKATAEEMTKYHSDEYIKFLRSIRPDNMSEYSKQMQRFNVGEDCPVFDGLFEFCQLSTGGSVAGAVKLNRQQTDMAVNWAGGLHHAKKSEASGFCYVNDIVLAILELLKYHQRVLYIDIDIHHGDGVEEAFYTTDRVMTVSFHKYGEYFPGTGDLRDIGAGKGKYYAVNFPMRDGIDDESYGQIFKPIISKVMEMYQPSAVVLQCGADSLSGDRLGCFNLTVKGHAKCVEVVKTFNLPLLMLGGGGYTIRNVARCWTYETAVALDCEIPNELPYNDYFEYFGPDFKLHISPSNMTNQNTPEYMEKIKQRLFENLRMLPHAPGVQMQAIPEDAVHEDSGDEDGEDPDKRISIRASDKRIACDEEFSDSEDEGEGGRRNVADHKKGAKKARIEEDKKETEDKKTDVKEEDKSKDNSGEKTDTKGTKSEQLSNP
Description: Inhibition of HDAC2 (unknown origin)

[30] = molecular target: ALK tyrosine kinase receptor (Homo sapiens, UniProt Q9UM73, G1202R)
ALK tyrosine kinase receptor (Homo sapiens, UniProt Q9UM73, G1202R), sequence (Q9UM73 19-1620 G1202R limits assumed): as the sequence (Q9UM73 19-1620 limits assumed) above, with G1184R counted along it

[31] = tested on: A549; experiment: cells; format: functional, cell-based; conditions: Homo sapiens, A549, 72 h
Description: Antiproliferative activity against human A549 cells assessed as inhibition of cell proliferation measured after 72 hrs by CCK8 assay

[32] = molecular target: T1, ALK tyrosine kinase receptor; experiment: Inhibition of ALK (unknown origin) at 10 nM preincubated for 10 mins followed by addition of substrate and ATP for 25 mins by caliper EZ reader method; conditions: time 35.0 min
Target sequence in this assay (Q9UM73 19-1620 limits assumed): as the sequence (Q9UM73 19-1620 limits assumed) above

[33] = tested on: MDA-MB-231; experiment: Potency index, ratio of ceritinib IC50 to test compound IC50 for human MDA-MB-231 cells assessed as inhibition of cell proliferation measured after 72 hrs by CCK8 assay; format: functional
[34] = tested on: SH-SY5Y; experiment: Potency index, ratio of crizotinib IC50 to test compound IC50 for human SH-SY5Y cells harboring ALK F1174L mutant assessed as inhibition of cell proliferation measured after 72 hrs by CCK8 assay; format: functional
[35] = tested on: MDA-MB-231; experiment: Potency index, ratio of crizotinib IC50 to test compound IC50 for human MDA-MB-231 cells assessed as inhibition of cell proliferation measured after 72 hrs by CCK8 assay; format: functional
[36] = Potency index, ratio of ceritinib IC50 to test compound IC50 for human SKNBE2 cells harboring wild type ALK assessed as inhibition of cell proliferation measured after 72 hrs by CCK8 assay; format: functional

IC50 [2]: 4080 nM
IC50 [3]: 2660 nM
IC50 [5]: 1980 nM
IC50 [7]: 370 nM
IC50 [11]: 1820 nM
SMILES: Cc1cc(Nc2ncc(Cl)c(Nc3ccccc3S(=O)(=O)C(C)C)n2)c(OC(C)C)cc1C1CCNCC1 [CERITINIB]
Activity [1]: 2.07%
Activity [4]: 7.07%
Activity [6]: 1.55%
Activity [8]: 1.17%
viability at 1 µM [9]: 81.9%
Activity [10]: 11.77%
Activity [12]: 20.4%
viability at 1 µM [13]: 90.2%

IC50 [2]: 910 nM
IC50 [3]: 220 nM
inhibition [15]: 103%
inhibition [17]: 49%
IC50 [5]: 180 nM
IC50 [18]: 6.7 nM
IC50 [21]: 12 nM
IC50 [7]: 340 nM
IC50 [23]: 2.4 nM
IC50 [25]: 4.3 nM
inhibition [26]: 100%
IC50 [11]: 390 nM
IC50 [29]: 15 nM
IC50 [30]: 1 nM
IC50 [31]: 3420 nM
inhibition [32]: 84.5%
SMILES: CC(C)S(=O)(=O)c1ccccc1Nc1nc(Nc2ccc(C(=O)NCCCCCCC(=O)NO)cc2)ncc1Cl
Ratio IC50 [14]: 3
Ratio IC50 [16]: 3
Ratio IC50 [19]: 3
Ratio IC50 [20]: 3
Ratio IC50 [22]: 3
Ratio IC50 [24]: 3
Ratio IC50 [27]: 3
Ratio IC50 [28]: 3
Ratio IC50 [33]: 3
Ratio IC50 [34]: 3
Ratio IC50 [35]: 3
Ratio IC50 [36]: 3
